Results taken from publication PMC9143880, “Improving Antimicrobial Activity and Physico-Chemical Properties by Isosteric Replacement of 2-Aminothiazole with 2-Aminooxazole” (Pharmaceuticals, 2022).
pIC50: −log10 of the molar value. In brackets after ≈: the same amount, converted by molar mass. Where two headings read alike, the source gives them in different places.

Legend:
[1] = tested on: M. aurum DSM 43999 (ATCC 23366); assay: Antimycobacterial MIC, microdilution broth / resazurin; type: cell-based; conditions: Mycolicibacterium aurum; resazurin after 72 h; read-out: MIC M. aurum
[2] = tested on: Mycobacterium tuberculosis H37Ra ITM-M006710 (ATCC 9431); assay: Antimycobacterial MIC, microdilution broth / Alamar Blue (resazurin); type: cell-based; conditions: for MIC: Mycobacterium tuberculosis
[3] = tested on: Staphylococcus aureus subsp. aureus CCM 4223 (ATCC 29213); assay: Antibacterial microdilution broth (EUCAST); type: cell-based; conditions: Staphylococcus aureus; 24h incubation; read-out: MIC SA
[4] = tested on: Candida krusei CCM 8271 (ATCC 6258); assay: Antifungal microdilution broth (EUCAST); conditions: Pichia kudriavzevii, 24 h, read-out: MIC CK
[5] = tested on: Candida tropicalis CCM 8264 (ATCC 750); assay: Antifungal microdilution broth (EUCAST); conditions: Candida tropicalis, 24 h, read-out: MIC CT
[6] = tested on: Staphylococcus aureus subsp. aureus (MRSA) CCM 4750 (ATCC 43300); assay: Antibacterial microdilution broth (EUCAST); type: cell-based; conditions: Staphylococcus aureus; 24h incubation; read-out: MIC MRSA
[7] = tested on: Staphylococcus epidermidis CCM 4418 (ATCC 12228); assay: Antibacterial microdilution broth (EUCAST); type: cell-based; conditions: Staphylococcus epidermidis; 24h incubation; read-out: MIC SE
[8] = tested on: M. smegmatis DSM 43465 (ATCC 607); assay: Antimycobacterial MIC, microdilution broth / resazurin; type: cell-based; conditions: Mycolicibacterium smegmatis; resazurin after 48 h; read-out: MIC M. smegmatis
[9] = tested on: Enterococcus faecalis CCM 4224 (ATCC 29212); assay: Antibacterial microdilution broth (EUCAST); type: cell-based; conditions: Enterococcus faecalis; 24h incubation; read-out: MIC EF
[10] = tested on: M. kansasii DSM 44162 (ATCC 12478); assay: Antimycobacterial MIC, microdilution broth / resazurin; type: cell-based; conditions: Mycobacterium kansasii, read-out: MIC M. kansasii
[11] = tested on: M. avium DSM 44156 (ATCC 25291); assay: as above; type: cell-based, Mycobacterium avium; conditions: Mycobacterium avium; resazurin after 96 h; read-out: MIC M. avium
[12] = tested on: Candida albicans CCM 8320 (ATCC 24433); assay: Antifungal microdilution broth (EUCAST); conditions: Candida albicans, 24 h, read-out: MIC CA
[13] = RP-UHPLC lipophilicity parameter log k’w; type: physicochemical; conditions: for log k’w: RP-UHPLC, acetonitrile/water, log k extrapolated to 0% acetonitrile; for logkw: experimental lipophilicity parameter
In short: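 log k’w from isocratic RP-UHPLC with an acetonitrile/water mobile phase, using 40, 45 and 50% acetonitrile for subtype I and 20, 30 and 40% for subtype II. A single run was made at each mobile-phase composition.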

[14] = tested on: Trichophyton interdigitale CCM 8377 (ATCC 9533); assay: Antifungal microdilution broth (EUCAST); conditions: Trichophyton interdigitale, 72 h, read-out: MIC TI
[15] = tested on: Candida parapsilosis CCM 8260 (ATCC 22019); assay: Antifungal microdilution broth (EUCAST); conditions: Lodderomyces parapsilosis, 24 h, read-out: MIC CP
[16] = tested on: Pseudomonas aeruginosa CCM 3955 (ATCC 27853); assay: Antibacterial microdilution broth (EUCAST); type: cell-based; conditions: Pseudomonas aeruginosa; 72h incubation; read-out: MIC PA
[17] = tested on: Aspergillus flavus CCM 8363; assay: Antifungal microdilution broth (EUCAST); conditions: Aspergillus flavus, CCM8363, 24 h, read-out: MIC AFla
[18] = tested on: HepG2 cells; assay: HepG2 cytotoxicity screening (CellTiter 96); type: cell-based, human; conditions: for pIC50: Homo sapiens, HepG2, 24 h, 24 h incubation, CellTiter 96, * above highest tested concentration, ** limited by insolubility in medium; for SI: SI = IC50 (µM) HepG2 / MICH37Ra (µM)
[19] = tested on: Escherichia coli CCM 3954 (ATCC 25922); assay: Antibacterial microdilution broth (EUCAST); type: cell-based; conditions: Escherichia coli; 24h incubation; read-out: MIC EC
[20] = tested on: Aspergillus fumigatus ATCC 204305; assay: Antifungal microdilution broth (EUCAST); conditions: Aspergillus fumigatus, ATCC204305, 24 h, read-out: MIC AF
[21] = tested on: Lichtheimia corymbifera CCM 8077; assay: Antifungal microdilution broth (EUCAST); conditions: Lichtheimia corymbifera, CCM8077, 24 h, read-out: MIC LC
[22] = tested on: Acinetobacter baumannii DSM 30007 (ATCC 19606); assay: Antibacterial microdilution broth (EUCAST); type: cell-based; conditions: Acinetobacter baumannii; 24h incubation; read-out: MIC AB
[23] = 120 h, Middlebrook 7H9, resazurin after 120 h, read-out: Mtb H37Ra MIC
[24] = Middlebrook 7H9, resazurin after 120 h

Compound	MIC [1] [µg/mL]	MIC [2, 23] [µg/mL]	MIC [3] [µM]	MIC [4] [µM]	MIC [5] [µM]	MIC [6] [µM]	MIC [7] [µM]	MIC [8] [µg/mL]	MIC [9] [µM]	MIC [11] [µg/mL]	MIC [12] [µM]	log k’w [13]	logkw [13]	MIC [14] [µM]	MIC [15] [µM]	MIC [16] [µM]	MIC [17] [µM]	pIC50 [18]	MIC [19] [µM]	MIC [20] [µM]	further results
Cc1cc(C(=O)Nc2nccs2)cc(Cl)n1 [Compound 7a]	≥ 500	≥ 500	> 500	> 125	> 125	> 500	> 500	≥ 500	> 500	≥ 500	> 125	2.319	2.319	> 125	> 125	> 500	> 125	< 3.60	> 500	> 125	MIC ([10]; resazurin after 96 h): ≥ 500 µg/mL; MIC [21]: > 125 µM; melting point: 198.6 °C; MIC [22]: > 500 µM
O=C(Nc1nccs1)c1cnc2ccccc2n1 [Compound 10a]	≥ 250	≥ 250	> 500	> 500	> 500	> 500	> 500	≥ 250	> 500	≥ 250	> 500	2.530	2.53	> 500	> 500	> 500	> 500	< 4.30	> 500	> 500	MIC ([10]; resazurin after 96 h): 7.81 µg/mL (≈ 30.5 µM); MIC [21]: > 500 µM; melting point: 251.4 °C; MIC [22]: > 500 µM
O=C(Nc1nc(-c2ccccc2)cs1)c1ccccn1 [Compound 11a]	≥ 500	3.91 to 7.81	> 500	> 500	> 500	> 500	> 500	≥ 500	> 500	≥ 500	> 500	3.102	3.102	> 500	> 500	> 500	> 500	< 4.00	> 500	> 500	Mtb H37Ra MIC [2, 24]: 3.91 µg/mL; MIC ([2]; recalculated from µg/mL, read-out: MICH37Ra): 13.9 µM; MIC ([10]; 96 h): 3.91 µg/mL (≈ 13.9 µM); SI [18]: >7.2; MIC [21]: > 500 µM; melting point: 128 to 130 °C; MIC [22]: > 500 µM
O=C(Nc1nc(-c2ccccc2)co1)c1ccccn1 [Compound 11b]	31.2 (≈ 118 µM)	3.91 to 7.81	500 (≈ 133 µg/mL)	500 (≈ 133 µg/mL)	500 (≈ 133 µg/mL)	500 (≈ 133 µg/mL)	125 (≈ 33.2 µg/mL)	125 (≈ 471 µM)	> 500	31.2 (≈ 118 µM)	500 (≈ 133 µg/mL)	2.038	2.038	62.5 (≈ 16.6 µg/mL)	500 (≈ 133 µg/mL)	> 500	500 (≈ 133 µg/mL)	3.05	> 500	500 (≈ 133 µg/mL)	Mtb H37Ra MIC [2, 24]: 3.91 µg/mL; MIC ([2]; read-out: MICH37Ra, recalculated from µg/mL): 14.7 µM; MIC ([10]; 96 h): 3.91 µg/mL (≈ 14.7 µM); SI [18]: >67.8; MIC [21]: 125 µM (≈ 33.2 µg/mL); melting point: 107 to 109 °C; MIC [22]: > 500 µM
Cc1cncc(C(=O)Nc2nc(-c3ccccc3)co2)c1 [Compound 14b]	≥ 250	≥ 250	250 (≈ 69.8 µg/mL)	> 500	> 500	250 (≈ 69.8 µg/mL)	250 (≈ 69.8 µg/mL)	≥ 250	> 250	≥ 250	> 500	1.478	1.478	> 500	> 500	> 250	> 500	< 4.00	> 250	> 500	MIC ([10]; resazurin after 96 h): ≥ 250 µg/mL; MIC [21]: > 500 µM; melting point: 258.6 °C; MIC [22]: > 250 µM
O=C(Nc1nc(-c2ccccc2)co1)c1cnccn1 [Compound 17b]	125 (≈ 469 µM)	15.6	> 500	> 500	> 500	> 500	> 500	≥ 500	> 500	≥ 500	> 500	1.306	1.306	> 500	> 500	> 500	> 500	< 3.00	> 500	> 500	MIC ([10]; 96 h): 15.6 µg/mL (≈ 58.7 µM); MIC [21]: > 500 µM; melting point: 140 to 142 °C; MIC [22]: > 500 µM
